Values quoted from earlier work, collected in patent US20140113883A1, “Therapeutic micro nutrient composition for lipolysis and sclerosis” (priority 2008, published 2014).

Test system: red blood cells

**Q.** With Lysolecithin as the substance, how does the hemolytic properties read?
**A.** strong hemolytic properties
